Data as given in US7566731B2, “Hetaryl substituted homotetramic and homotetronic acids and their use thereof as pesticides” (Bayer CropScience AG, priority 2001, dated 2009).

Columns and labels:
Assay type in all cases: in vivo
[1] = test system: two-spotted spider mite (Tetranychus urticae); experiment: Tetranychus test (OP resistant/immersion treatment); settings: 100 ppm; bean plants immersed
Description: To prepare a suitable active compound preparation, 1 part by weight of active compound is mixed with the stated amounts of solvent and emulsifier and the concentrate is diluted to the desired concentration with emulsifier-containing water. Bean plants (Phaseolus vulgaris) which are severely infested by all stages of the two-spotted spider mite (Tetranychus urticae) are immersed into an active compound preparation of the desired concentration. After the desired time, the efficacy is determined in %. 100% means that all of the spider mites have been destroyed; 0% means that none of the spider mites have been destroyed.

[2] = test system: larvae of the mustard beetle (Phaedon cochleariae); experiment: Phaedon larvae test; settings: after 7 days, cabbage leaves immersed
Description: (§1) To prepare a suitable active compound preparation, 1 part by weight of active compound is mixed with the stated amounts of solvent and emulsifier and the concentrate is diluted to the desired concentration with emulsifier-containing water. Cabbage leaves (Brassica oleracea) are treated by immersing in the active compound preparation of the desired concentration and populated with larvae of the mustard beetle (Phaedon cochleariae) while the leaves are still moist. After the desired time, the destruction rate is determined in %. 100% means that all the beetle larvae have been destroyed; 0% means that none of the beetle larvae have been destroyed.

[3] = test system: Sugar beet; experiment: Pre-emergence test, Sugar beet; settings: 125 g ai/ha, after three weeks
Description: (§2) To prepare a suitable active compound preparation, 1 part by weight of active compound is mixed with the stated amount of solvent, the stated amount of emulsifier is added, and the concentrate is diluted with water to the desired concentration. Seeds of the test plants are sown in normal soil. After approximately 24 hours, the soil is sprayed with the active compound preparation in such a way that the active compound quantities desired in each case are applied per unit area. The concentration of the spray mixture is chosen such that the active compound quantities desired in each case are applied in 1000 l of water/ha. After three weeks, the degree of damage to the plants is scored in % damage in comparison with the development of the untreated control. The figures denote: • 0%=no effect (like untreated control) • 100%=total destruction

[4] = test system: Sugar beet; experiment: Post-emergence test, Sugar beet; settings: 125 g ai/ha, after three weeks
Description: as §2, with “Test plants which have a height” for “Seeds”, “5 to 15 cm” for “the test plants”, “are” for “are sown in normal soil. After approximately 24 hours, the soil is”

[5] = test system: green peach aphid (Myzus persicae); experiment: Myzus test; settings: 500 ppm; after 6 days; cabbage leaves immersed
Description: To prepare a suitable active compound preparation, 1 part by weight of active compound is mixed with the stated amounts of solvent and emulsifier and the concentrate is diluted to the desired concentration with emulsifier-containing water. Cabbage leaves (Brassica oleracea) which are severely infested by the green peach aphid (Myzus persicae) are treated by immersing into the active compound preparation of the desired concentration. After the desired time, the destruction rate is determined in %. 100% means that all of the aphids have been destroyed; 0% means that none of the aphids have been destroyed.

[6] = test system: Digitaria; experiment: Post-emergence test, Digitaria; settings: 125 g ai/ha, after three weeks
Description: as §2, with “Test plants which have a height” for “Seeds”, “5 to 15 cm” for “the test plants”, “are” for “are sown in normal soil. After approximately 24 hours, the soil is”

[7] = test system: Avena fatua; experiment: Post-emergence test, Avena fatua; settings: 125 g ai/ha, after three weeks
Description: as §2, with “Test plants which have a height” for “Seeds”, “5 to 15 cm” for “the test plants”, “are” for “are sown in normal soil. After approximately 24 hours, the soil is”

[8] = test system: fall armyworm caterpillars (Spodoptera frugiperda); experiment: Spodoptera frugiperda test; settings: 500 ppm; after 7 days; cabbage leaves immersed
Description: as §1, with “fall armyworm caterpillars (Spodoptera frugiperda)” for “mustard beetle (Phaedon cochleariae)”, “caterpillars” for “beetle larvae”

[9] = test system: Setaria; experiment: Post-emergence test, Setaria; settings: 125 g ai/ha, after three weeks
Description: as §2, with “Test plants which have a height” for “Seeds”, “5 to 15 cm” for “the test plants”, “are” for “are sown in normal soil. After approximately 24 hours, the soil is”

[10] = test system: Digitaria; experiment: Pre-emergence test, Digitaria; settings: 125 g ai/ha, after three weeks
Description: as §2

[11] = test system: Alopecurus; experiment: Post-emergence test, Alopecurus; settings: 125 g ai/ha, after three weeks
Description: as §2, with “Test plants which have a height” for “Seeds”, “5 to 15 cm” for “the test plants”, “are” for “are sown in normal soil. After approximately 24 hours, the soil is”

[12] = test system: Meloidogyne incognita; experiment: Meloidogyne test; settings: active compound concentration 20 ppm; lettuce in sand
Description: To prepare a suitable active compound preparation, 1 part by weight of active compound is mixed with the stated amounts of solvent and emulsifier and the concentrate is diluted to the desired concentration with water. Containers are filled with sand, active compound solution, Meloidogyne incognita egg/larval suspension and lettuce seeds. The lettuce seeds germinate and the plantlets develop. The galls develop on the roots. After the desired time, the nematicidal efficacy is determined in % with reference to gall formation. 100% means that no galls were found; 0% means that the number of galls on the treated plants corresponds to that of the untreated control.

[13] = test system: Setaria; experiment: Pre-emergence test, Setaria; settings: 125 g ai/ha, after three weeks
Description: as §2

[14] = test system: Wheat; experiment: Post-emergence test, Wheat; settings: 125 g ai/ha, after three weeks
Description: as §2, with “Test plants which have a height” for “Seeds”, “5 to 15 cm” for “the test plants”, “are” for “are sown in normal soil. After approximately 24 hours, the soil is”

[15] = test system: Matricaria; experiment: Pre-emergence test, Matricaria; settings: 125 g ai/ha, after three weeks
Description: as §2

[16] = test system: Lolium; experiment: Pre-emergence test, Lolium; settings: 125 g ai/ha, after three weeks
Description: as §2

Row | SMILES | destruction rate (efficacy) [1] | destruction rate ([2]; 1000 ppm) | degree of damage to the plants (% damage), Sugar beet [3] | degree of damage to the plants (% damage), Sugar beet [4] | destruction rate [5] | degree of damage to the plants (% damage), Digitaria [6] | degree of damage to the plants (% damage), Avena fatua [7] | destruction rate [8] | degree of damage to the plants (% damage), Setaria [9] | degree of damage to the plants (% damage), Digitaria [10] | destruction rate ([2]; 500 ppm) | degree of damage to the plants (% damage), Alopecurus [11] | destruction rate (nematicidal efficacy with reference to gall formation) [12] | degree of damage to the plants (% damage), Setaria [13] | degree of damage to the plants (% damage), Wheat [14] | degree of damage to the plants (% damage), Matricaria [15] | degree of damage to the plants (% damage), Lolium [16]
1 | Cc1sc(-c2ccc(Cl)cc2)nc1C1=C(O)CC(C)(C)NC1=O [Example I-1-a-1] | 98% | 100% |  |  |  |  |  |  |  |  |  |  |  |  |  |  | 
2 | Cc1sc(-c2ccc(Cl)cc2)nc1C1=C(O)C(C)(C)C(C)(C)OC1=O [Example I-2-a-1] | 100% |  | 0% | 0% | 90% | 95% | 90% | 100% | 100% | 100% | 100% | 90% | 100% | 100% | 10% | 95% | 100%
3 | CCOC(=O)OC1=C(c2nc(-c3ccc(Cl)cc3)sc2C)C(=O)NC(C)(C)C1 [Example I-1-c-1] |  |  |  |  |  |  |  |  |  |  |  |  | 100% |  |  |  | 
